Test results: article PMC12655351, “Synthesis and Anticancer Activity Evaluation of New 5-((5-Nitrofuran-2-yl)allylidene)-2-thioxo-4-thiazolidinones” (Pharmaceuticals, 2025)
“And” between values parts separate entries of the source, which are not always exact repeats. Equal values may be shown once.

Key:
OVCAR-4 = assay: cells; conditions: Homo sapiens, OVCAR-4, 48 h; for CC50: read-out: LC50, OVCAR-4, 48 h
786-0 = assay: cells; conditions: Homo sapiens, 786-0, 48 h
[1] = test system: panel of 60 cancer cell lines; assay: cells; conditions: Homo sapiens, read-out: MG_MID GI50
KM12 = assay: NCI-60 SRB screen; conditions: KM12, 48 h
UACC-257 = assay: cells; conditions: Homo sapiens, UACC-257, 48 h; for CC50: read-out: LC50, UACC-257, 48 h
HT29 = conditions: HT29, 48 h
HL-60(TB) = assay: NCI-60 SRB screen; conditions: for TGI / GI50: HL-60(TB), 48 h; for GI50 / CC50: Homo sapiens, HL-60, 48 h; for CC50: read-out: LC50, HL-60(TB), 48 h
SK-MEL-28 = assay: cells; conditions: Homo sapiens, SK-MEL-28, 48 h; for CC50: read-out: LC50, SK-MEL-28, 48 h
UACC-62 = assay: NCI-60 SRB screen; conditions: for GI50 / CC50 / TGI: UACC-62, 48 h; for CC50: read-out: LC50, UACC-62, 48 h; for growth GP: UACC-62, 10 μM, 48 h
HOP-62 = assay: NCI-60 SRB screen; conditions: for TGI / GI50: HOP-62, 48 h; for GI50: Homo sapiens
SW-620 = assay: NCI-60 SRB screen; conditions: SW-620, 48 h
A549/ATCC = assay: NCI-60 SRB screen
HCT-116 = assay: cells; conditions: Homo sapiens, HCT-116, 48 h
BT-549 [2] = assay: cells; conditions: Homo sapiens, BT-549, 48 h; for CC50: read-out: LC50, BT-549, 48 h
IGROV1 = assay: NCI-60 SRB screen; conditions: for GI50 / CC50: Homo sapiens, IGROV-1, 48 h; for GI50 / TGI: IGROV1, 48 h; for CC50: read-out: LC50, IGROV1, 48 h
K-562 = assay: cells; conditions: Homo sapiens, K562, 48 h; for GI50: K-562, 48 h; for CC50: read-out: LC50
M14 = assay: NCI-60 SRB screen; conditions: M14, 48 h; for GI50 / CC50: Homo sapiens; for CC50: read-out: LC50, M14, 48 h
BT-549 [3] = conditions: for growth GP: BT-549, 10 μM, 48 h; for TGI: BT-549, 48 h
RPMI 8866 = assay: MTT assay; format: cell-based; conditions: Homo sapiens; RPMI 8866, 24 h of treatment
Method in brief: (§1)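 Cells were exposed to compounds at 0.625–40.0 μM (seven concentrations, triplicate) for 24 h, then incubated with MTT for 2 h at 37 °C. After lysis in acidic SDS/DMF buffer (pH 4.7), absorbance was read at 570 nm.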

DLD-1 = assay: MTT assay; format: cell-based; conditions: Homo sapiens; DLD-1, 24 h of treatment
Method in brief: as §1

HCC-1954 = assay: MTT assay; format: cell-based; conditions: Homo sapiens, HCC1954; HCC-1954, 24 h of treatment
Method in brief: as §1

HT-29 = assay: MTT assay; format: cell-based; conditions: Homo sapiens; HT-29, 24 h of treatment
Method in brief: as §1

K562 = assay: MTT assay; format: cell-based; conditions: Homo sapiens; K562, 24 h of treatment
Method in brief: as §1

MCF-7 = assay: MTT assay; format: cell-based; conditions: Homo sapiens, MCF7; MCF-7, 24 h of treatment
Method in brief: as §1

Jurkat = assay: MTT assay; format: cell-based; conditions: Homo sapiens, 24 h of treatment
Method in brief: as §1

AGS = assay: MTT assay; format: cell-based; conditions: Homo sapiens, 24 h of treatment
Method in brief: as §1

SK-MEL-5 = assay: cells; conditions: Homo sapiens, SK-MEL-5, 48 h; for CC50: read-out: LC50, SK-MEL-5, 48 h
OVCAR-3 = conditions: for growth GP: OVCAR-3, 10 μM, 48 h
COLO 205 = conditions: COLO 205, 48 h

## CC(C)C(C(=O)O)N1C(=O)/C(=C/C=C/c2ccc([N+](=O)[O-])o2)SC1=S (stereo not shown) [5b, 3-Methyl-2-((Z)-5-((E)-3-(5-nitrofuran-2-yl)allylidene)-4-oxo-2-thioxothiazolidin-3-yl)butanoic acid]
OVCAR-4
  GI50: 2430 nM
  CC50: 26300 nM
786-0
  GI50: 1060 nM
[1]
  GI50: 1400 nM
KM12; Homo sapiens
  GI50: 1170 nM
KM12
  TGI: 2570 nM
UACC-257
  GI50: 1570 nM
  CC50: 6800 nM
HT29
  TGI: 2900 nM
HL-60(TB)
  TGI: 3870 nM
  GI50: 1200 nM
  CC50: > 100000 nM
SK-MEL-28
  GI50: 1460 nM
  CC50: 5480 nM
SK-OV-3; SK-OV-3, 48 h
  TGI: 10700 nM
UACC-62; Homo sapiens
  GI50: 780 nM
  CC50: 4900 nM
UACC-62
  TGI: 2160 nM
HOP-62
  TGI: 3080 nM
  GI50: 1350 nM
SW-620; Homo sapiens
  GI50: 590 nM
SW-620
  TGI: 2550 nM
A549/ATCC; 48 h
  TGI: 3830 nM
A549/ATCC; Homo sapiens, A549, 48 h
  GI50: 1860 nM
HCT-116
  GI50: 320 nM
BT-549 [2]
  GI50: 750 nM
  CC50: 5130 nM
IGROV1
  GI50: 1780 nM
  CC50: 6570 nM
  TGI: 3420 nM
K-562
  GI50: 450 nM
  CC50: > 100000 nM
M14
  GI50: 1600 nM
  CC50: 6440 nM
  TGI: 3210 nM
BT-549 [3]
  growth GP: -98.16%
  TGI: 2140 nM
RPMI 8866
  IC50: 13500 nM
DLD-1
  IC50: 3860 nM
HCC-1954
  IC50: 6420 nM
HT-29
  IC50: 7740 nM
K562
  IC50: 16100 nM
MCF-7
  IC50: 3320 nM
Jurkat
  IC50: 3730 nM
AGS
  IC50: 2650 nM
SK-MEL-5
  GI50: 1030 nM
  CC50: 4740 nM
OVCAR-3
  growth GP: -95.93%
OVCAR-3; OVCAR-3, 48 h
  TGI: 2770 nM
COLO 205
  TGI: 2790 nM

## O=C(O)CCN1C(=O)/C(=C/C=C/c2ccc([N+](=O)[O-])o2)SC1=S [12b, 3-((Z)-5-((E)-3-(5-Nitrofuran-2-yl)allylidene)-4-oxo-2-thioxothiazolidin-3-yl)propanoic acid]
OVCAR-4
  GI50: 1790 nM
  CC50: 8070 nM
786-0
  GI50: 1380 nM
[1]
  GI50: 1680 nM
KM12
  TGI: 3370 nM
UACC-257
  GI50: 1810 nM
  CC50: 9210 nM
HT29
  TGI: 12500 nM
HL-60(TB)
  TGI: 3300 nM
  GI50: 1280 nM
SK-MEL-28
  GI50: 1570 nM
  CC50: 5930 nM
SK-OV-3; SK-OV-3, 48 h
  TGI: 16100 nM
UACC-62; Homo sapiens
  GI50: 650 nM
  CC50: 4160 nM
UACC-62
  growth GP: -97.43%
  TGI: 2000 nM
HOP-62
  TGI: 3570 nM
  GI50: 1610 nM
SW-620
  TGI: 19800 nM
A549/ATCC; 48 h
  TGI: 12400 nM
A549/ATCC; Homo sapiens, A549, 48 h
  GI50: 3210 nM
BT-549 [2]
  GI50: 1350 nM
  CC50: 6130 nM
IGROV1
  GI50: 1430 nM
  CC50: 5700 nM
  TGI: 2860 nM
K-562
  GI50: 340 nM
  CC50: > 100000 nM
M14
  GI50: 1480 nM
  CC50: 6310 nM
  TGI: 3050 nM
BT-549 [3]
  TGI: 2880 nM
RPMI 8866
  IC50: 7780 nM
DLD-1
  IC50: 3310 nM
HCC-1954
  IC50: 4860 nM
HT-29
  IC50: 8560 nM
K562
  IC50: 7150 nM
MCF-7
  IC50: 3010 nM
Jurkat
  IC50: 1770 nM
AGS
  IC50: 3650 nM
SK-MEL-5
  GI50: 1030 nM
  CC50: 4870 nM
OVCAR-3
  growth GP: -96.70%
OVCAR-3; OVCAR-3, 48 h
  TGI: 3010 nM
COLO 205
  TGI: 12400 nM

## O=C(O)CCCN1C(=O)/C(=C/C=C/c2ccc([N+](=O)[O-])o2)SC1=S [13b, 4-((Z)-5-((E)-3-(5-Nitrofuran-2-yl)allylidene)-4-oxo-2-thioxothiazolidin-3-yl)butanoic acid]
OVCAR-4
  GI50: 1160 nM
  CC50: 5750 nM
786-0
  GI50: 320 nM
[1]
  GI50: 1610 nM
UACC-257
  CC50: 6360 nM
HT29
  GI50: 260 nM
HL-60(TB)
  CC50: > 100000 nM
SK-OV-3; SK-OV-3, 48 h
  GI50: 2180 nM
  TGI: 7440 nM and 13100 nM
SK-OV-3; human, 48 h
  CC50: 39400 nM
UACC-62; Homo sapiens
  GI50: 310 nM
UACC-62
  growth GP: -95.10%
  GI50: 180 nM
HOP-62; HOP-62, 10 μM, 48 h
  growth GP: -94.79%
HOP-62
  TGI: 2670 nM and 1900 nM
SW-620; Homo sapiens
  GI50: 240 nM
SW-620
  GI50: 280 nM
  TGI: 540 nM and 830 nM
A549/ATCC; 48 h
  GI50: 780 nM
A549/ATCC; Homo sapiens, A549, 48 h
  GI50: 1360 nM
HCT-116
  GI50: 310 nM
IGROV1
  CC50: 5140 nM
K-562
  GI50: 160 nM
  CC50: > 100000 nM
BT-549 [3]
  growth GP: -98.54%
RPMI 8866
  IC50: 3940 nM
DLD-1
  IC50: 3180 nM
HCC-1954
  IC50: 3120 nM
HT-29
  IC50: 4390 nM
K562
  IC50: 3570 nM
MCF-7
  IC50: 1630 nM
Jurkat
  IC50: 500 nM
AGS
  IC50: 2100 nM
SK-MEL-5
  GI50: 610 nM
  CC50: 4610 nM
OVCAR-3; OVCAR-3, 48 h
  GI50: 390 nM
  TGI: 2040 nM and 1360 nM
